The inhibition is the drop in the measured response relative to a control, in per cent. Higher therefore signals a strong effect.

This assay concerns the target T1, NEK1 (Homo sapiens, UniProt Q96PY6).
T1 construct: purchased Thermo Fisher Scientific (Life Technologies) SelectScreen
Description: SelectScreen Z'LYTE. Format: biochemical. The method, boiled down:
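SelectScreen broad panel; activity (Z'LYTE, Adapta) plus binding formats. ATP: Km app for CSF1R Z'LYTE; 10 for CAMK1 Adapta. Readout = % per kinase.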

T1 sequence (Q96PY6 whole entry): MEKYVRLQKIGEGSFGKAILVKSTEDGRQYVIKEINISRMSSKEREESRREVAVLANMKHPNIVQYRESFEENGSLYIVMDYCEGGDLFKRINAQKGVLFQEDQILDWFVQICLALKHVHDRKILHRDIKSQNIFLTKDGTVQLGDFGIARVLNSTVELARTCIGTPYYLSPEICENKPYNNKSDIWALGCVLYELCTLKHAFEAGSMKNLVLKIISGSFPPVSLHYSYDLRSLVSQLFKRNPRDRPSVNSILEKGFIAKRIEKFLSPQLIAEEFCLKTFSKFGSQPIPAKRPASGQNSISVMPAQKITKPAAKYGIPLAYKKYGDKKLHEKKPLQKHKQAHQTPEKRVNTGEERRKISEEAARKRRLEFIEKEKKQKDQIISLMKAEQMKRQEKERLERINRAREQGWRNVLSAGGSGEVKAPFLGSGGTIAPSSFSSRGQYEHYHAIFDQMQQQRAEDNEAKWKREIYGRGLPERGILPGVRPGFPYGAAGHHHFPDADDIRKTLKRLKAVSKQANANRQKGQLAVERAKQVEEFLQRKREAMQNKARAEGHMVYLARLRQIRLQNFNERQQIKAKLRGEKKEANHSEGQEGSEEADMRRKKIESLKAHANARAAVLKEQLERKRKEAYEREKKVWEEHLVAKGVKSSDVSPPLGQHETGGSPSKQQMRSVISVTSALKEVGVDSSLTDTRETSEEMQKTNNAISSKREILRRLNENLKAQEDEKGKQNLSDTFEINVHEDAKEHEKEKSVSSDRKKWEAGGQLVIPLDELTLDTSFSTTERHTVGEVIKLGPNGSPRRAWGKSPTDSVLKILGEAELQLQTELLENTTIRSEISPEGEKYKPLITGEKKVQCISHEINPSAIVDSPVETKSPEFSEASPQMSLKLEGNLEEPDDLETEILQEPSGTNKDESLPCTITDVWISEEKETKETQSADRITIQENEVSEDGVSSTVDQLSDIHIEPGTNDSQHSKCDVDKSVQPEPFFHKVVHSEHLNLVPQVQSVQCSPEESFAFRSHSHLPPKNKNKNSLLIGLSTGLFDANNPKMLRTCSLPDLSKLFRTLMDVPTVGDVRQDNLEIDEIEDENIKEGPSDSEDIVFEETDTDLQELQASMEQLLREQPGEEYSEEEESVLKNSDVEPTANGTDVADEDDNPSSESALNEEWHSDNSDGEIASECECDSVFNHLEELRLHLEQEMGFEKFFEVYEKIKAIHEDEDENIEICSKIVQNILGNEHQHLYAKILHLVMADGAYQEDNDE

Turning to `CN(C(=O)CN1CCOCC1)c1ccc2sc3c(-c4cccc5c(=O)cc(N6CC7CCC(C6)O7)oc45)cccc3c2c1` [NU5455], the inhibition at 1 µM was determined as 12.9%.

For the origin of these results see paper PMC6934184, “Selective DNA-PKcs inhibition extends the therapeutic index of localized radiotherapy and chemotherapy” (The Journal of Clinical Investigation, 2019).
